These results are taken from patent US11844801B2, “Oral compositions of MK2 pathway inhibitor for treatment of immune conditions” (priority 2020, dated 2023).

Test [1] deals with p-HSP27 (phosphorylated heat shock protein 27). In words: Ex vivo LPS-stimulated p-HSP27 in blood of dosed healthy subjects, PK/PD inhibitory Emax model. Set-up: species or system human. How it is done:
Blood samples of 10 mL were collected for PD analysis. For the SAD cohorts, blood was collected before dosing and 1, 12, and 24 hours after dosing. For the MAD cohorts, on day 1 blood was collected before the morning dose and 4 and 12 hours after the morning dose (prior to the evening dose); on day 7, blood was collected before the morning dose and 4 and 12 hours after the morning dose.
Additional details of the assays for analyzing p-HSP27 and cytokines are included in the Supplementary Information.
Pharmacodynamics. PD data analysis was conducted using Microsoft Excel 2010 (Microsoft, Redmond, WA), Meso Scale Discovery Workbench® analysis software (Rockville, MD), and Phoenix WinNonlin, version 8.2.
Sample Preparation for p-HSP27 Analysis. […] Treatment groups consisted of 3 tubes for group ‘A’, 2 tubes for group ‘B’, and 1 tube for group ‘C’.
Dimethyl sulfoxide (DMSO) was added to all tubes in groups ‘A’ and ‘C’ to a final concentration of 0.1% (10 μL per mL of a 10% DMSO solution in Dulbecco's Modified Eagle Medium (DMEM) containing 10% fetal bovine serum (FBS) and 1% penicillin/streptomycin/glutamine). Samples were then rocked gently at room temperature. […] Samples were then rocked gently at room temperature for a minimum of 1 hour.
Samples in groups ‘A’ and ‘B’ were stimulated with lipopolysaccharide at a final concentration of 100 ng/mL for 22 minutes at room temperature. A stock solution of lipopolysaccharide at 1 mg/mL in DMEM containing 10% FBS and 1% penicillin/streptomycin was diluted to 10 μg/mL in DMEM containing 10% FBS and 1% penicillin/streptomycin, and 10 μL of this working solution was added per mL of blood. Samples were gently rocked at room temperature for 11 minutes, then placed upright for 11 minutes prior to peripheral blood mononuclear cells (PBMC) isolation.
Ten μL of DMEM containing 10% FBS only was added per mL of blood in group ‘C’ for all patient samples (unstimulated samples). Samples were gently rocked at room temperature for 11 minutes, then placed upright for 11 minutes prior to PBMC isolation.
Upon completion of treatment (lipopolysaccharide stimulated or unstimulated) for each sample, PBMCs were isolated from each human whole blood aliquot in all treatment groups. One mL of blood from each sample was gently layered onto 0.75 mL of Histopaque-1077 in a 2-mL microcentrifuge tube. Histopaque-1077 was maintained at room temperature. The samples were centrifuged for 2 minutes at 16,000×g in an Eppendorf microcentrifuge. The interface and upper layers were removed and added to tubes containing 1 mL cold Dulbecco's phosphate-buffered saline (DPBS). These samples were then centrifuged for 30 seconds at 16,000×g in an Eppendorf microcentrifuge to pellet the cells. The buffer supernatant was removed by aspiration and the pellets were re-suspended in 1 mL of cold DPBS. The pellets from each sample were then re-pelleted, as described above. […]
Analysis of p-HSP27 (Ser78) Levels Using Luminex Technology. The lysates were analyzed for HSP27 phosphorylation with a custom Milliplex® MAP Human Phospho-HSP27(Ser78) Cell Signaling Magnetic Bead Kit from Millipore Sigma (Burlington, MA) using the kit-prescribed immunoassay protocol for a 96-well solid plate and hand-held magnetic separation block. […]

Test [2] has as its system IL-6. In words: R848 stimulated IL-6 production in human whole blood. It is filed as cell-based. The following applies: R848, 0.5 ug/mL, 5 hr. Here is the method:
Human whole blood assays were performed as described above with the exceptions listed below. […] Compounds were serially diluted in 100% DMSO (Sigma-Aldrich, D2650) followed by a 10× dilution into RPMI (Gibco, 11875). After the one-hour incubation with the compounds or vehicle, 2 μL of R848 (InvivoGen, tlrl-r848) in RPMI (Gibco, 11875) was added for a final concentration of 0.5 μg/mL to each well except for the no stimulus wells. After five hours of incubation with R848, plasma was harvested and assayed for TNF-α, IL-1β, IL-6 and IL-8 using Meso Scale Discovery Technology V-plex human cytokine kits according to the kit protocol.

The test system of test [3] is IL-6. Put plainly: A549 IL-1β stimulated IL-6 assay. In kind it is cell-based. The following applies: Homo sapiens, A549 cells, 1 ng/mL, 18 hr. How it is done:
A549 IL-1β stimulated IL-6 Assay—A549 cells (American Type Culture Collection, […]) were grown in Ham's F-12K (Kaighn's) (Gibco, 21127-022) with penicillin-streptomycin (10 U/mL) (Gibco, 15140-122) and 10% fetal bovine serum (Gibco, 26140-079). Cells were grown to 80% confluence then trypsinized to remove cells. Cells were plated in 96 well flat bottom plates in complete media and allowed to recover overnight. Cells were pretreated for one hour in the presence of serially diluted compound or vehicle (0.5% DMSO) (Sigma-Aldrich, D2650) then stimulated with IL-1β (1 ng/mL) (R&D Systems, 201-LB-005) for 18 hours. Culture media was then collected for determination of IL-6 levels using Meso Scale Technology.

For test [4], the system named is IL-1α. Put plainly: Human PBMC LPS stimulated IL-1α biosynthesis. In kind it is cell-based. Conditions: hPBMC, 100 ng/mL, 24 hr.
Test [5] concerns IL-6. In words: Rat whole blood LPS stimulated IL-6. In kind it is cell-based. The following applies: 100 ng/mL, 4 hr.

Structures are written as SMILES.

Consider `Cc1cnc(-c2ccnc(C(C)(C)O)n2)cc1-n1c(C)cc(OCc2ncc(F)cc2F)c(Cl)c1=O` (single isomer, unassigned) [ATI-450, 3-chloro-4-((3,5-difluoropyridin-2-yl)methoxy)-2′-(2-(2-hydroxypropan-2-yl)pyrimidin-4-yl)-5′,6-dimethyl-2H-[1,4′-bipyridin]-2-one], for which, in test [1] (50 mg BID, day 7), the “Cmax (Multiple of IC80)” value amounted to 6.0x. In addition, in test [1] (50 mg BID, day 7), the “Ctrough (Multiple of IC80)” value was 2.4x. Further, the IC80 in test [1] (Homo sapiens, calculated from IC50, combined SAD and MAD data, read-out: IC80, plasma concentration at 80% of maximal inhibition) was 0.0367 µg/mL. Also, the IC50 in test [1] (Homo sapiens, inhibitory Emax model, combined SAD and MAD data, read-out: IC50, plasma concentration at half maximal inhibition) worked out at 0.0092 µg/mL; in test [2], 79.2 ± 17.2 nM; in test [3] it was 11.1 ± 7.6 nM; in test [4], 31.1 nM; in test [5] it was 28.3 ± 1.2 nM. For the same molecule, in test [1] (calculated from IC50, combined SAD and MAD data), the “IC80, plasma concentration at 80% of maximal inhibition” value was 0.0367 µg/mL.
